Source: patent publication US11590116B2 (THERAVANCE BIOPHARMA R&D IP, LLC, priority 2019, dated 2023)

Tests used:
[1] = target: T1, recombinant human ALK5 (TGF-βR1) protein (Homo sapiens, UniProt P36897); test: Biochemical ALK5 (TGF-βR1) assay to measure pKi (LANCE Ultra ULight kinase assay); conditions: apparent pKi from pIC50 by Cheng-Prusoff, read-out: ALK5 pKi (converted)
T1 construct: purchased Life Technologies PR9075A
T1 sequence (P36897 34-503): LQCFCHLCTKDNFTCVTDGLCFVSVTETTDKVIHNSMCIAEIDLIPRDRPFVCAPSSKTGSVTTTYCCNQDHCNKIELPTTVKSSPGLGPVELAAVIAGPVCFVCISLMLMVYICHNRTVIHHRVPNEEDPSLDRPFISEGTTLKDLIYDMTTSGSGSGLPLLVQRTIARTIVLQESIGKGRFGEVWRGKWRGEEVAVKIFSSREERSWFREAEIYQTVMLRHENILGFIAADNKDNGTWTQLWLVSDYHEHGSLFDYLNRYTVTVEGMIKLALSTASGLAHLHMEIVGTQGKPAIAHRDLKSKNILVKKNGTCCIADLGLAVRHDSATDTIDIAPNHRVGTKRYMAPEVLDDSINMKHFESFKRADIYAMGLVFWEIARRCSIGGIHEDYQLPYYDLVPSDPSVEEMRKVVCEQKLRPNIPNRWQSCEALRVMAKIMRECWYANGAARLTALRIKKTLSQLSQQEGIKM
How it was run: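 Compounds (10 μM to 25 pM) were preincubated 60 min at room temperature with enzyme, then reactions were started with ATP (125 μM stock, 5× final) and run 60 min at 37 °C. EDTA-containing Eu-anti-phospho-Topo IIα (Thr1342) antibody stopped the reaction; TR-FRET read at 665 nm. pIC50 from 4-parameter fit, converted to pKi via Cheng-Prusoff.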

[2] = system: TGF-β-stimulated SMAD3 phosphorylation in BEAS-2B cells; test: Cellular ALK5 potency assay, inhibition of TGF-β stimulated pSMAD3 formation in BEAS-2B cells; format: cell-based; conditions: Homo sapiens; inhibition of TGF-β stimulated pSMAD3 formation, BEAS-2B cells; read-out: BEAS2B pIC50 (converted)
How it was run: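 BEAS-2B human lung epithelial cells pre-treated 1 h at 37° C with compound in HBSS/25 mM HEPES/1% BSA, then stimulated 30 min with 10 ng/mL TGF-β (final). Lysates assayed for pSMAD3 by AlphaLISA; pIC50 from dose-dependent change versus stimulated untreated cells.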

| Compound | Ki [1] | IC50 [2] |
| --- | --- | --- |
| Cc1cccc(-c2n[nH]cc2-c2ccc3nccc(NC(=O)CN4CCOCC4)c3n2)n1 [Compound 840, N-[6-[3-(6-methyl-2-pyridyl)-1H-pyrazol-4-yl]-1,5-naphthyridin-4-yl]-2-morpholino-acetamide] | 0.0398 to 0.316 nM | 25.1 to 158 nM |
| Cc1cccc(-c2n[nH]cc2-c2ccc3nccc(NC(=O)CCN4CCOCC4)c3n2)n1 [Compound 841, N-[6-[3-(6-methyl-2-pyridyl)-1H-pyrazol-4-yl]-1,5-naphthyridin-4-yl]-3-morpholino-propanamide] | 0.398 to 3.16 nM | 25.1 to 158 nM |
| Cc1cccc(-c2n[nH]cc2-c2ccc3nccc(NC(=O)CCCN4CCOCC4)c3n2)n1 [Compound 842, N-[6-[3-(6-methyl-2-pyridyl)-1H-pyrazol-4-yl]-1,5-naphthyridin-4-yl]-4-morpholino-butanamide] | 0.398 to 3.16 nM | 25.1 to 158 nM |
| Cc1cccc(-c2n[nH]cc2-c2ccc3nccc(NC(=O)CCN4CCN(C(C)C)CC4)c3n2)n1 [Compound 843, 3-(4-isopropylpiperazin-1-yl)-N-[6-[3-(6-methyl-2-pyridyl)-1H-pyrazol-4-yl]-1,5-naphthyridin-4-yl]propanamide] | 0.398 to 3.16 nM | 25.1 to 158 nM |
| Cc1cccc(-c2n[nH]cc2-c2ccc3nccc(N4CCC(N5CCN(C)CC5)CC4)c3n2)n1 [Compound 845, 8-[4-(4-methylpiperazin-1-yl)-1-piperidyl]-2-[3-(6-methyl-2-pyridyl)-1H-pyrazol-4-yl]-1,5-naphthyridine] | 0.398 to 3.16 nM | 200 to 1260 nM |
| Cc1cccc(-c2n[nH]cc2-c2ccc3nccc(N4CC(N5CCOCC5)C4)c3n2)n1 [Compound 846, 4-[1-[6-[3-(6-methyl-2-pyridyl)-1H-pyrazol-4-yl]-1,5-naphthyridin-4-yl]azetidin-3-yl]morpholine] | 0.398 to 3.16 nM | 200 to 1260 nM |
| Cc1cccc(-c2n[nH]cc2-c2ccc3nccc(N4CCC(N5CCOCC5)CC4)c3n2)n1 [Compound 847, 4-[1-[6-[3-(6-methyl-2-pyridyl)-1H-pyrazol-4-yl]-1,5-naphthyridin-4-yl]-4-piperidyl]morpholine] | 0.0398 to 0.316 nM | 25.1 to 158 nM |
| Cc1cccc(-c2n[nH]cc2-c2ccc3nccc(N(C)CCCN4CCOCC4)c3n2)n1 [Compound 848, N-methyl-6-[3-(6-methyl-2-pyridyl)-1H-pyrazol-4-yl]-N-(3-morpholinopropyl)-1,5-naphthyridin-4-amine] | 0.0398 to 0.316 nM | 200 to 1260 nM |
| Cc1cccc(-c2n[nH]cc2-c2ccc3nccc(CN4CCC(N5CCOCC5)CC4)c3n2)n1 [Compound 849, 4-[1-[[6-[3-(6-methyl-2-pyridyl)-1H-pyrazol-4-yl]-1,5-naphthyridin-4-yl]methyl]-4-piperidyl]morpholine] | 0.398 to 3.16 nM | 200 to 1260 nM |
| Cc1cccc(-c2n[nH]cc2-c2ccc3nccc(CN4CC(N5CCOCC5)C4)c3n2)n1 [Compound 850, 4-[1-[[6-[3-(6-methyl-2-pyridyl)-1H-pyrazol-4-yl]-1,5-naphthyridin-4-yl]methyl]azetidin-3-yl]morpholine] | 0.398 to 3.16 nM | 200 to 1260 nM |
| Cc1cccc(-c2n[nH]cc2-c2ccc3nccc(Cl)c3n2)n1 [Compound 851, 8-chloro-2-[3-(6-methyl-2-pyridyl)-1H-pyrazol-4-yl]-1,5-naphthyridine] | 0.0398 to 0.316 nM | < 20 nM |
| Cc1cccc(-c2n[nH]cc2-c2ccc3nccc(-c4nc(CO)co4)c3n2)n1 [Compound 852, [2-[6-[3-(6-methyl-2-pyridyl)-1H-pyrazol-4-yl]-1,5-naphthyridin-4-yl]oxazol-4-yl]methanol] | 0.0398 to 0.316 nM | 25.1 to 158 nM |
| Cc1cccc(-c2n[nH]cc2-c2ccc3nccc(CN(C)CCCN4CCOCC4)c3n2)n1 [Compound 853, N-methyl-N-[[6-[3-(6-methyl-2-pyridyl)-1H-pyrazol-4-yl]-1,5-naphthyridin-4-yl]methyl]-3-morpholino-propan-1-amine] | 0.0398 to 0.316 nM | 25.1 to 158 nM |
| Cc1cccc(-c2n[nH]cc2-c2ccc3nccc(-c4cn(-c5ccccc5)nn4)c3n2)n1 [Compound 854, 2-[3-(6-methyl-2-pyridyl)-1H-pyrazol-4-yl]-8-(1-phenyltriazol-4-yl)-1,5-naphthyridine] | 0.0398 to 0.316 nM | 25.1 to 158 nM |
| CCOC(=O)Cc1ccnc2ccc(-c3c[nH]nc3-c3cccc(C)n3)nc12 [Compound 855, ethyl 2-[6-[3-(6-methyl-2-pyridyl)-1H-pyrazol-4-yl]-1,5-naphthyridin-4-yl]acetate] | 0.0398 to 0.316 nM | 25.1 to 158 nM |
| Cc1cccc(-c2n[nH]cc2-c2ccc3nccc(N4CCNCC4)c3n2)n1 [Compound 856, 2-[3-(6-methyl-2-pyridyl)-1H-pyrazol-4-yl]-8-piperazin-1-yl-1,5-naphthyridine] | 0.0398 to 0.316 nM | 25.1 to 158 nM |
| CC(=O)Oc1ccnc2ccc(-c3c[nH]nc3-c3cccc(C)n3)nc12 [Compound 857, [6-[3-(6-methyl-2-pyridyl)-1H-pyrazol-4-yl]-1,5-naphthyridin-4-yl]acetate] | 0.398 to 3.16 nM | 25.1 to 158 nM |
| CCOC(=O)c1ccnc2ccc(-c3c(-c4cccc(C)n4)n[nH]c3-c3cccc(F)c3)nc12 [Compound 858, ethyl 6-[5-(3-fluorophenyl)-3-(6-methyl-2-pyridyl)-1H-pyrazol-4-yl]-1,5-naphthyridine-4-carboxylate] | 3.98 to 31.6 nM | 200 to 1260 nM |
| CCOC(=O)c1c(-c2cccc(F)c2)cnc2ccc(-c3c[nH]nc3-c3cccc(C)n3)nc12 [Compound 859, ethyl 3-(3-fluorophenyl)-6-[3-(6-methyl-2-pyridyl)-1H-pyrazol-4-yl]-1,5-naphthyridine-4-carboxylate] | 0.398 to 3.16 nM | 200 to 1260 nM |

More lines, main results first:

| Ki [1] | Compound | IC50 [2] |
| --- | --- | --- |
| 0.398 to 3.16 nM | COC(Cc1ccnc2ccc(-c3c[nH]nc3-c3cccc(C)n3)nc12)OC [Compound 860, 8-(2,2-dimethoxyethyl)-2-[3-(6-methyl-2-pyridyl)-1H-pyrazol-4-yl]-1,5-naphthyridine] | 25.1 to 158 nM |
| 3.98 to 31.6 nM | Cc1cccc(-c2n[nH]cc2-c2ccc3nccc(C4COC5(CCNC5)CN4)c3n2)n1 (stereo not drawn) [Compound 862, 8-[6-[3-(6-methyl-2-pyridyl)-1H-pyrazol-4-yl]-1,5-naphthyridin-4-yl]-6-oxa-2,9-diazaspiro[4.5]decane] | 200 to 1260 nM |
| 3.98 to 31.6 nM | Cc1cccc(-c2n[nH]cc2-c2ccc3nccc(C4COCC(C)N4)c3n2)n1 (stereo not drawn) [Compound 863, 3-methyl-5-[6-[3-(6-methyl-2-pyridyl)-1H-pyrazol-4-yl]-1,5-naphthyridin-4-yl]morpholine] | 200 to 1260 nM |
| 0.398 to 3.16 nM | COC(=O)c1ccnc2ccc(-c3c(OC)n[nH]c3-c3cccc(C)n3)nc12 [Compound 864, methyl 6-[3-methoxy-5-(6-methyl-2-pyridyl)-1H-pyrazol-4-yl]-1,5-naphthyridine-4-carboxylate] | 200 to 1260 nM |
| 0.0398 to 0.316 nM | CNCCn1cc(-c2ccnc3ccc(-c4c[nH]nc4-c4cccc(C)n4)cc23)cn1 [Compound 865, N-methyl-2-[4-[6-[3-(6-methyl-2-pyridyl)-1H-pyrazol-4-yl]-4-quinolyl]pyrazol-1-yl]ethanamine] | 25.1 to 158 nM |
| < 0.0316 nM | Cc1cccc(-c2n[nH]cc2-c2ccc3nccc(-c4cn[nH]c4)c3c2)n1 [Compound 866, 6-[3-(6-methyl-2-pyridyl)-1H-pyrazol-4-yl]-4-(1H-pyrazol-4-yl)quinoline] | 25.1 to 158 nM |
| 0.398 to 3.16 nM | Cc1cccc(-c2n[nH]cc2-c2ccc3nccc(N4CCNCC4)c3c2)n1 [Compound 868, 6-[3-(6-methyl-2-pyridyl)-1H-pyrazol-4-yl]-4-piperazin-1-yl-quinoline] | 25.1 to 158 nM |
| 0.0398 to 0.316 nM | Cc1cccc(-c2[nH]ncc2-c2ccc3ncc(C(=O)OCCN4CCNCC4)cc3c2)n1 [Compound 876, 2-(piperazin-1-yl)ethyl 6-(5-(6-methylpyridin-2-yl)-1H-pyrazol-4-yl)quinoline-3-carboxylate] | < 20 nM |
| 0.0398 to 0.316 nM | Cc1cccc(-c2[nH]cnc2-c2ccc3ncc(C(=O)OC[C@@H]4CCCNC4)cc3c2)n1 [Compound 877, (R)-piperidin-3-ylmethyl 6-(5-(6-methylpyridin-2-yl)-1H-imidazol-4-yl)quinoline-3-carboxylate] | 25.1 to 158 nM |
| 0.0398 to 0.316 nM | Cc1cccc(-c2[nH]cnc2-c2ccc3ncc(C(=O)O[C@H]4CCCNC4)cc3c2)n1 [Compound 878, (S)-piperidin-3-yl 6-(5-(6-methylpyridin-2-yl)-1H-imidazol-4-yl)quinoline-3-carboxylate] | 25.1 to 158 nM |
| 3.98 to 31.6 nM | Cc1cccc(-c2[nH]cnc2-c2ccc3ncc(C(=O)O[C@H]4CCCC[C@@H]4N)cc3c2)n1 [Compound 879, (1S,2S)-2-aminocyclohexyl 6-(5-(6-methylpyridin-2-yl)-1H-imidazol-4-yl)quinoline-3-carboxylate] | 25.1 to 158 nM |
